We go through 8 compounds from EP0962457B1, “Piperidones as tachykinin antagonists” (Pfizer Limited, priority 1998, dated 1999).

The target in data set [1] is T1, NK3 receptor (Cavia porcellus, UniProt P30098).
T1 construct: membranes from guinea pig cortex; from tissue; host or cells: guinea pig cortex membranes
T1 sequence (P30098 1-440): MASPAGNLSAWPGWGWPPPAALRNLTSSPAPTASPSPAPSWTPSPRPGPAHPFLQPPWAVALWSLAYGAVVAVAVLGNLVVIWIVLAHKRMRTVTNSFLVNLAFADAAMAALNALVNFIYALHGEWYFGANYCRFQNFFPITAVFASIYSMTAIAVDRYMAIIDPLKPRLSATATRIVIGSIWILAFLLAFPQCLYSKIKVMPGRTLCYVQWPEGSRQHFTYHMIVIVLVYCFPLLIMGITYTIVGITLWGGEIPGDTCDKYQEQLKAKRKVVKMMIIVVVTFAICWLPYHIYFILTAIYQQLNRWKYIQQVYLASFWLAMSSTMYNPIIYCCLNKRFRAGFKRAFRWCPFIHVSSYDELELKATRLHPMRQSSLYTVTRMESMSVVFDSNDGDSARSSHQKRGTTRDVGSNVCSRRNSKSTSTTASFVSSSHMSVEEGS
Nature of the data set: NK3 receptor affinity: inhibition of [3H]-senktide binding to membranes from guinea pig cortex. The following applies: read-out: NK3 receptor affinity (pKi) (converted). The procedure:
The compounds of the formula (I) and their salts can be tested for NK3 receptor affinity, in vitro, by testing their ability to inhibit [^3H]-senktide binding to membranes from guinea pig cortex using the method of Guard, et al, Br.J.Pharmacol., 99, 767-773 (1990).
The compounds of Tables 1 and 2 were tested for NK3 receptor affinity, in vitro, by the method described on pages 9 and 10 by testing their ability to inhibit [^3H]-senktide binding to membranes from guinea pig cortex using the method of Guard, et al, Br.J.Pharmacol., 99, 767-773 (1990).
(§1) In Tables 1 and 2 the "pKi" measurement is the negative logarithm of the molar affinity of the test compound for the receptor as determined in radioligand binding assays using standard protocols. A 1.0 log. unit difference in either the NK2 or NK3 receptor affinity figures corresponds to a 10-fold activity difference.

For data set [2], the target named is T2, human NK2 receptor (Homo sapiens, UniProt P21452).
T2 construct: expressed in transfected cells; host or cells: Chinese hamster ovary cells (membranes)
T2 sequence (P21452 1-398): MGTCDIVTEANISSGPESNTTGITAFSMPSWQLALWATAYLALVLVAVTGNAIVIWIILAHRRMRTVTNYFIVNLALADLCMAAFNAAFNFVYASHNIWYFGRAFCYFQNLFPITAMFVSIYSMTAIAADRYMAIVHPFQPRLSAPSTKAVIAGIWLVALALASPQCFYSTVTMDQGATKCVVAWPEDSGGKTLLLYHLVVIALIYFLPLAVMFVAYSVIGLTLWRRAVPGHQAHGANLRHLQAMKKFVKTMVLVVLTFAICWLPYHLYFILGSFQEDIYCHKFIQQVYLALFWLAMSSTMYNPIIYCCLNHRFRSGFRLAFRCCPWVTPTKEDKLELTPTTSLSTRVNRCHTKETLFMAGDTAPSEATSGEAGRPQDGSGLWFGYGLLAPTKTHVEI
Nature of the data set: NK2 receptor affinity: competition with [3H]-NKA for binding to membranes of Chinese hamster ovary cells expressing the cloned human NK2 receptor. The following applies: CHO cell membranes, 90 min, 25°C, read-out: NK2 receptor affinity (pKi) (converted). Here is the method:
The affinity of the compounds of formula (I) and their salts for the human NK2 receptor can be tested in vitro by testing their ability to compete with [^3H]-NKA (neurokinin A) for binding to membranes prepared from Chinese hamster ovary cells expressing the cloned human NK2 receptor. In this method, washed Chinese hamster ovary cell membranes are prepared as described for the previous method where IM9 cells are used instead. The membranes are incubated (90 min, 25°C) with [^3H]-NKA and with a range of concentrations of the test compound. Non-specific binding was determined in the presence of 10µM NKA.
The affinity of the compounds of Tables 1 and 2 for the human NK2 receptor was tested in vitro by testing their ability to compete with [^3H]-NKA for binding to membranes prepared from Chinese hamster ovary cells expressing the cloned human NK2 receptor using the method set out on page 9.
as §1

Data set [3] is described as follows: In vitro metabolic stability: disappearance half-life in human liver microsomes (HLM/37). In kind it is in vitro ADME. The following applies: human liver microsomes HLM/37, test compound 1µM, 37°C, 60 minutes, NADPH, read-out: Metabolic stability (t½). The procedure: The in vitro metabolic stability of the compounds of the formula (I) and their salts can be tested by incubating samples for 1 hour at 37°C in the presence of a "moderate activity" (re. concentrations of cytochrome p450 enzymes present) human liver microsomal preparation (prepared from human liver homogenates). The samples were analysed by HPLC at regular intervals during this one hour period and the half-life (t½) determined (in minutes).
The metabolic stability of the compounds of Tables 1 and 2 was determined in vitro by the method described on page 10 according to the following experimental protocol.
Transplant-quality human liver tissue was obtained from the International Institute for the Advancement of Medicine (Exton, PA). The donors ranged in age from 26 to 65 years old and included 3 males and 3 females. Hepatic microsomes were prepared from individual human livers by the process of differential centrifugation. Briefly, the liver tissue was homogenised in 50mM Tris HCI (pH 7.4) containing 250mM sucrose and then centrifuged at 9,000G for 20 minutes to remove the cell debris and nuclear fraction. The supernatant layer was removed and further centrifuged at 105,000G for 60 minutes to pellet the microsomal fraction. […] The cytochrome P450 content was determined using the method of Omura, T., Sato, R., J. Biol. Chem., 239, 2379-2385 (1964) and the protein concentration was determined using the method of Lowry et al., J. Biol. Chem., 193, 265-275 (1951), with bovine serum albumin as the protein standard.
The metabolic activities of the 6 major drug metabolising cytochrome P450 enzymes were determined for HLM/37 and compared to values obtained from a bank of individual human livers (n = 19). […]
Aliquots (100µl) were removed from the incubation at 0, 3, 5, 10, 15, 20, 30, 45 and 60 minutes after the addition of NADPH. […] After centrifugation 150µl aliquots were removed and 120µl of each of these analysed by HPLC on a Hypersil HS C18 5µ column (50x4.6mm) with a mobile phase of methanol:water (90:10, by volume) containing 2mM ammonium acetate. […]

SMILES strings stand for the structures. Read-outs that look alike come from different tables or passages of the source.

Turning to `CS(=O)(=O)N1CCC(C2CN(CC[C@]3(c4ccc(Cl)c(Cl)c4)CCC(=O)N(C4CCCC4)C3)C2)CC1` [Example 5], the Ki was 25.1 nM in data set [1] and 1 nM in data set [2].

As to `CCS(=O)(=O)N1CCC(C2CN(CC[C@]3(c4ccc(Cl)c(Cl)c4)CCC(=O)N(CC4CC4)C3)C2)CC1` [Example 8, (5S)-1-(Cyclopropylmethyl)-5-(3,4-dichlorophenyl)-5-(2-[3-[1-(ethylsulfonyl)-4-piperidinyl]-1-azetanyl]ethyl)tetrahydro-2(1H)-pyridinone], the Ki in data set [2] is 6.31 nM.

On to `CS(=O)(=O)N1CCC(C2CN(CC[C@]3(c4ccc(F)c(F)c4)CCC(=O)N(C4CCCCC4)C3)C2)CC1` [Example 7], for which the Ki in data set [2] is 3.16 nM.

As to `CS(=O)(=O)N1CCC(C2CN(CC[C@]3(c4ccc(Cl)c(F)c4)CCC(=O)N(CC4CC4)C3)C2)CC1` [Example 2], in data set [2], the Ki was 2.51 nM. Moreover, in data set [3], the half-life at 1 µM is over 2 h.

Regarding `CS(=O)(=O)N1CCC(C2CN(CC[C@]3(c4ccc(Cl)c(Cl)c4)CCC(=O)N(Cc4ccccc4)C3)C2)CC1` [Example 4], in data set [2], the Ki was 1.26 nM.

In the case of `CS(=O)(=O)N1CCC(C2CN(CC[C@]3(c4ccc(Cl)c(Cl)c4)CCC(=O)N(CCC4CC4)C3)C2)CC1` [Example 3], in data set [3], the half-life at 1 µM worked out at 0.45 h.

As to `CS(=O)(=O)N1CCC(C2CN(CC[C@]3(c4ccc(Cl)c(Cl)c4)CCC(=O)N(CC4CCCCC4)C3)C2)CC1` [Example 6], the Ki in data set [1] is 5.01 nM; in data set [2], 20 nM.

As to `CS(=O)(=O)N1CCC(C2CN(CC[C@]3(c4ccc(Cl)c(Cl)c4)CCC(=O)N(CC4CC4)C3)C2)CC1` [Example 1, (5S)-1-(Cyclopropylmethyl)-5-(3,4-dichlorophenyl)-5-(2-[3-[1-(methylsulfonyl)-4-piperidinyl]-1-azetanyl]ethyl)tetrahydro-2(1H)-pyridinone], in data set [2], the Ki was 3.98 nM. In addition, in data set [3] (pH 7.4), the half-life at 1 µM was 1.25 h.
